Reference: PubChem BioAssay AID248 (DTP/NCI, 2004)
“And” between values parts separate entries of the source, which are not always exact repeats. Equal values may be shown once. Toxic doses and inconclusive results are not listed.

System: L1210 leukemia ip in BDF1 mice, survival T/C
Test: NCI In Vivo Anticancer Drug Screen. Data for tumor model L1210 Leukemia (intraperitoneal) in B6D2F1 (BDF1) mice
Settings: endpoint: mean survival time, higher = longer survival
Method in brief: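 Mice bearing the transplanted tumor received compound or vehicle. Survival of the treated group was divided by that of the vehicle-treated control group to give the ratio.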

[1] = dose: 100.0 mg/kg/injection, schedule: Q01DX009 (ip), vehicle: saline
[2] = dose: 100.0 mg/kg/injection, schedule: Q04DX003 (ip), vehicle: saline
[3] = dose: 200.0 mg/kg/injection, schedule: Q01DX009 (ip), vehicle: saline
[4] = dose: 200.0 mg/kg/injection, schedule: Q04DX003 (ip), vehicle: saline
[5] = dose: 400.0 mg/kg/injection, schedule: Q01DX009 (ip), vehicle: saline
[6] = dose: 400.0 mg/kg/injection, schedule: Q04DX003 (ip), vehicle: saline
[7] = dose: 100.0 mg/kg/injection, schedule: Q01DX001 (ip), vehicle: Klucel (hydroxypropylcellulose) (HPC)
[8] = dose: 200.0 mg/kg/injection, schedule: Q01DX001 (ip), vehicle: Klucel (hydroxypropylcellulose) (HPC)
[9] = dose: 400.0 mg/kg/injection, schedule: Q01DX001 (ip), vehicle: Klucel (hydroxypropylcellulose) (HPC)
[10] = dose: 100.0 mg/kg/injection, schedule: Q01DX001 (ip), vehicle: saline
[11] = dose: 200.0 mg/kg/injection, schedule: Q01DX001 (ip), vehicle: saline
[12] = dose: 400.0 mg/kg/injection, schedule: Q01DX001 (ip), vehicle: saline
[13] = dose: 50.0 mg/kg/injection, schedule: Q01DX009 (ip), vehicle: Klucel (hydroxypropylcellulose) (HPC)
[14] = dose: 100.0 mg/kg/injection, schedule: Q01DX009 (ip), vehicle: saline with Tween-80
[15] = dose: 100.0 mg/kg/injection, schedule: Q04DX003 (ip), vehicle: saline with Tween-80
[16] = dose: 200.0 mg/kg/injection, schedule: Q01DX009 (ip), vehicle: saline with Tween-80
[17] = dose: 200.0 mg/kg/injection, schedule: Q04DX003 (ip), vehicle: saline with Tween-80

## COC(=O)C1(C)CCc2c(ccc3ccccc23)C1=O (stereo not given)
[1]
  T/C: 100 % of control
[2]
  T/C: 97 % of control
[3]
  T/C: 102 % of control
[4]
  T/C: 94 % of control
[5]
  T/C: 99 % of control
[6]
  T/C: 102 % of control

## O=C1OC(c2ccc(F)c3ccccc23)C2CCCCC12 (stereo not given)
[7]
  T/C: 102 % of control
[8]
  T/C: 102 % of control
[9]
  T/C: 96 % of control

## Cc1ccc(C)c2c1[nH]c1c(C)c3ccncc3c(C)c12
dose: 25.0 mg/kg/injection, schedule: Q01DX Z (ip), vehicle: saline
  T/C: 103 % of control
dose: 50.0 mg/kg/injection, schedule: Q01DX Z (ip), vehicle: saline
  T/C: 103 % of control
[10]
  T/C: 100 % of control
dose: 100.0 mg/kg/injection, schedule: Q01DX Z (ip), vehicle: saline
  T/C: 112 % of control
[11]
  T/C: 96 % of control
[12]
  T/C: 103 % of control

## O=C(O)c1ccc2c(c1)NC(c1cccc3ccccc13)NC2=O (stereo not given)
[13]
  T/C: 93 % of control
dose: 100.0 mg/kg/injection, schedule: Q01DX009 (ip), vehicle: Klucel (hydroxypropylcellulose) (HPC)
  T/C: 94 % of control
dose: 150.0 mg/kg/injection, schedule: Q01DX009 (ip), vehicle: Klucel (hydroxypropylcellulose) (HPC)
  T/C: 96 % of control

## C[As](C)(=S)[As](C)(C)=S
dose: 12.5 mg/kg/injection, schedule: Q01DX009 (ip), vehicle: Klucel (hydroxypropylcellulose) (HPC)
  T/C: 97 % of control
dose: 12.5 mg/kg/injection, schedule: Q04DX002 (ip), vehicle: Klucel (hydroxypropylcellulose) (HPC)
  T/C: 107 % of control and 88 % of control
dose: 25.0 mg/kg/injection, schedule: Q01DX009 (ip), vehicle: Klucel (hydroxypropylcellulose) (HPC)
  T/C: 97 % of control
dose: 25.0 mg/kg/injection, schedule: Q04DX002 (ip), vehicle: Klucel (hydroxypropylcellulose) (HPC)
  T/C: 96 % of control and 91 % of control
[13]
  T/C: 87 % of control

## COc1ccc(C(C)=O)cc1CCCOC(C)=O
dose: 100.0 mg/kg/injection, schedule: Q01DX001 (ip), vehicle: carboxymethylcellulose (CMC)
  T/C: 95 % of control
dose: 200.0 mg/kg/injection, schedule: Q01DX001 (ip), vehicle: carboxymethylcellulose (CMC)
  T/C: 106 % of control
dose: 400.0 mg/kg/injection, schedule: Q01DX001 (ip), vehicle: carboxymethylcellulose (CMC)
  T/C: 101 % of control

## O=C(Nc1ccc(C2=NCCN2)cc1)c1ccc(Br)c(C(=O)Nc2ccc(C3=NCCN3)cc2)c1
dose: 15.0 mg/kg/injection, schedule: Q01DX Z (ip), vehicle: saline
  T/C: 101 % of control
dose: 20.0 mg/kg/injection, schedule: Q01DX Z (ip), vehicle: water
  T/C: 102 % of control
dose: 30.0 mg/kg/injection, schedule: Q01DX Z (ip), vehicle: saline
  T/C: 117 % of control
dose: 30.0 mg/kg/injection, schedule: Q01DX Z (ip), vehicle: water
  T/C: 120 % of control

## CC(=S)Nc1ccc2ccccc2c1
[14]
  T/C: 94 % of control
[15]
  T/C: 101 % of control
[16]
  T/C: 94 % of control
[17]
  T/C: 104 % of control
dose: 400.0 mg/kg/injection, schedule: Q01DX009 (ip), vehicle: saline with Tween-80
  T/C: 109 % of control
dose: 400.0 mg/kg/injection, schedule: Q04DX003 (ip), vehicle: saline with Tween-80
  T/C: 101 % of control

## CC(Cl)(Cl)CC(O)(C(F)(F)F)C(F)(F)F
dose: 50.0 mg/kg/injection, schedule: Q04DX003 (ip), vehicle: saline with Tween-80
  T/C: 95 % of control
[15]
  T/C: 105 % of control
[17]
  T/C: 91 % of control

## CCOCC(=O)Cc1ccccc1
dose: 50.0 mg/kg/injection, schedule: Q01DX009 (ip), vehicle: saline with Tween-80
  T/C: 95 % of control
[14]
  T/C: 100 % of control
[16]
  T/C: 92 % of control

## S=C(Cc1cc(Cl)ccc1Cl)N1CCOCC1
dose: 100.0 mg/kg/injection, schedule: Q04DX002 (ip), vehicle: Klucel (hydroxypropylcellulose) (HPC)
  T/C: 95 % of control
dose: 200.0 mg/kg/injection, schedule: Q04DX002 (ip), vehicle: Klucel (hydroxypropylcellulose) (HPC)
  T/C: 109 % of control
dose: 400.0 mg/kg/injection, schedule: Q04DX002 (ip), vehicle: Klucel (hydroxypropylcellulose) (HPC)
  T/C: 98 % of control

## C#CCON(C(=O)Nc1ccc(Cl)cc1)C(=O)c1ccc(OC)cc1
dose: 100.0 mg/kg/injection, schedule: Q04DX003 (ip), vehicle: Klucel (hydroxypropylcellulose) (HPC)
  T/C: 88 % of control
dose: 200.0 mg/kg/injection, schedule: Q04DX003 (ip), vehicle: Klucel (hydroxypropylcellulose) (HPC)
  T/C: 86 % of control
dose: 400.0 mg/kg/injection, schedule: Q04DX003 (ip), vehicle: Klucel (hydroxypropylcellulose) (HPC)
  T/C: 93 % of control

## NC(=O)NCc1ccccc1
[10]
  T/C: 105 % of control
[11]
  T/C: 97 % of control
[12]
  T/C: 103 % of control

## Cc1nc(N)nc(N)c1-c1ccc(Cl)c(Cl)c1
dose: 0.6 mg/kg/injection, schedule: Q01DX Z (ip), vehicle: methylcellulose (MC)
  T/C: 106 % of control
dose: 1.0 mg/kg/injection, schedule: Q01DX009 (ip), vehicle: saline with Tween-80
  T/C: 102 % of control
dose: 1.0 mg/kg/injection, schedule: Q01DX Z (ip), vehicle: methylcellulose (MC)
  T/C: 102 % of control
dose: 1.0 mg/kg/injection, schedule: Q04DX009 (ip), vehicle: Klucel (hydroxypropylcellulose) (HPC)
  T/C: 96 % of control
dose: 1.08 mg/kg/injection, schedule: Q01DX009 (ip), vehicle: saline
  T/C: 117 % of control
dose: 1.5 mg/kg/injection, schedule: Q01DX Z (ip), vehicle: methylcellulose (MC)
  T/C: 106 % of control
dose: 1.8 mg/kg/injection, schedule: Q01DX009 (ip), vehicle: saline
  T/C: 107 % of control
dose: 2.0 mg/kg/injection, schedule: Q04DX009 (ip), vehicle: Klucel (hydroxypropylcellulose) (HPC)
  T/C: 120 % of control
dose: 2.3 mg/kg/injection, schedule: Q01DX Z (ip), vehicle: methylcellulose (MC)
  T/C: 112 % of control
dose: 3.0 mg/kg/injection, schedule: Q01DX009 (ip), vehicle: saline
  T/C: 114 % of control
dose: 3.0 mg/kg/injection, schedule: Q01DX010 (sc), vehicle: other
  T/C: 152 % of control
dose: 4.0 mg/kg/injection, schedule: Q01DX010 (sc), vehicle: other
  T/C: 152 % of control
dose: 4.0 mg/kg/injection, schedule: Q01DX Z (ip), vehicle: methylcellulose (MC)
  T/C: 118 % of control
dose: 5.0 mg/kg/injection, schedule: Q01DX009 (ip), vehicle: saline
  T/C: 122 % of control
dose: 6.0 mg/kg/injection, schedule: Q01DX Z (ip), vehicle: methylcellulose (MC)
  T/C: 123 % of control
dose: 8.0 mg/kg/injection, schedule: Q01DX009 (ip), vehicle: saline with Tween-80
  T/C: 102 % of control
dose: 8.0 mg/kg/injection, schedule: Q04DX009 (ip), vehicle: Klucel (hydroxypropylcellulose) (HPC)
  T/C: 115 % of control
dose: 8.4 mg/kg/injection, schedule: Q04DX003 (ip), vehicle: saline
  T/C: 102 % of control
dose: 12.5 mg/kg/injection, schedule: Q04DX003 (ip), vehicle: saline
  T/C: 95 % of control
dose: 14.0 mg/kg/injection, schedule: Q04DX003 (ip), vehicle: saline
  T/C: 115 % of control
dose: 16.0 mg/kg/injection, schedule: Q01DX009 (ip), vehicle: saline with Tween-80
  T/C: 90 % of control
dose: 16.0 mg/kg/injection, schedule: Q04DX009 (ip), vehicle: Klucel (hydroxypropylcellulose) (HPC)
  T/C: 110 % of control
dose: 23.0 mg/kg/injection, schedule: Q04DX003 (ip), vehicle: saline
  T/C: 105 % of control
dose: 25.0 mg/kg/injection, schedule: Q01DX001 (ip), vehicle: saline
  T/C: 98 % of control
dose: 25.0 mg/kg/injection, schedule: Q04DX003 (ip), vehicle: saline
  T/C: 122 % of control
dose: 39.0 mg/kg/injection, schedule: Q04DX003 (ip), vehicle: saline
  T/C: 119 % of control
dose: 50.0 mg/kg/injection, schedule: Q01DX001 (ip), vehicle: saline
  T/C: 112 % of control
dose: 65.0 mg/kg/injection, schedule: Q04DX003 (ip), vehicle: saline
  T/C: 115 % of control
[11]
  T/C: 88 % of control

## c1ccc2sc(SN3CCCCC3)nc2c1
[7]
  T/C: 103 % of control
[8]
  T/C: 97 % of control
[9]
  T/C: 94 % of control

## c1c[nH]cn1
dose: 50.0 mg/kg/injection, schedule: Q01DX009 (ip), vehicle: saline
  T/C: 93 % of control
[1]
  T/C: 101 % of control and 90 % of control
[2]
  T/C: 97 % of control
[3]
  T/C: 96 % of control and 90 % of control
[4]
  T/C: 97 % of control
[5]
  T/C: 103 % of control
[6]
  T/C: 94 % of control
